Test results published in paper PMC11513920, “Building Metabolically Stable and Potent Anti-HIV Thioether-Lipid Analogues of Tenofovir Exalidex: A thorough Pharmacological Analysis” (Journal of Medicinal Chemistry, 2024).
Several values for one entry are separate records, joined by “and”; a condition that tells them apart may be missing. Equal entries are not always repeated. Structures can show the parent of a compound that is named as a salt. Where two headings read alike, the source gives them in different places.

Assays:
[1] = dogs; cited from earlier work
[2] = Human liver microsome stability; conditions: HLM 1 mg/mL, 3 μM compound, NADPH, 37 °C, 120 min course
Protocol: Human liver microsomes (HLMs, 20 mg/mL) and CD-1 mouse liver microsomes (MLMs, 20 mg/mL) were purchased from Xenotech. NADPH was purchased from Sigma-Aldrich and prepared in 10 mM stock solutions of distilled H2O (Invitrogen UltraPure). […] Test compounds and positive controls were initially dissolved in MeOH to make 10 mM stock solutions. Sample solutions were then further diluted in 70/30 MeOH/H2O to 500 μM. Next, the reactions were prepared by mixing human or mouse liver microsomes (55 μL) with potassium phosphate buffer (100 mM, 928 μL) in 1.5 mL Eppendorf tubes. The test compounds (6.6 μL of 500 μM solution) were subsequently added to the suspensions, and the reaction mixtures were incubated at 37 °C for 5 min. Afterward, the liver microsome reactions were initiated with 110 μL of 10 mM NADPH and further incubated at 37 °C for the designated time course of the study. […] Each test compound was run in tandem with positive and negative control experiments for quality assurance. Positive control reactions were conducted at a final volume of 550 μL for a single run of each time point.
For both LM and plasma stability assays, each data point was analyzed in duplicate using in-between blank washes to avoid carry over and to equilibrate the column for the subsequent runs. Averages of these duplicate for individual compounds at each time point were then normalized to the data at 0 min, representing 100% test compound remaining or 0% metabolism. Half-lives (t1/2) were calculated by plotting ln of % test compound remaining versus time and performing linear regression to determine slope.
Metabolic Stability Assays
Liver Microsome Stability
Liver Microsome Stability Assay Setup Example
Quenching Mixture: 100 µL MeOH with ISTD (2 µM d5-7-ethoxycoumarin).
Final Volume After Quenching: 200 µL (100 µL from reaction mixture + 100 µL quencher
solution; ISTD final concentration of 1.0 µM).

in vitro [3] = conditions: human, HepaRG Cmax, 20 μM, HSA formulation 5:1, recorded after 3 h incubation
Text: (§1) Naturally, due the metabolic complexity of HepaRG cells, we specifically analyzed prodrug cellular uptake and stability, as represented by Cmax and intrinsic clearance (Clint,u) accordingly (Figure 7 and Table 9).
(§2) The HepaRG cell line (HPRGC10, Thermo Fisher Scientific) was used to evaluate the cellular permeability and metabolic stability for select final compounds in vitro. The cells were initially thawed with working media composed of HepaRG Thaw, Plate, & General Purpose Medium Supplement (HPRG670), Williams Medium E (100 mL), and GlutaMax (1 mL), all purchased from Thermo Fisher Scientific. […] After the thawing medium was aspirated from each well, the cells were cultured for an additional 6 days with working media consisting of HepaRG Maintenance/Metabolism Medium Supplement (HPRG720), Williams Medium E (500 mL), and GlutaMax (1 mL), all purchased from Thermo Fisher Scientific. Upon completing the 7-day culture period, HepaRG cells were plated in enough wells to allow for duplicate analysis of prodrugs in two independent cellular uptake or metabolic stability experiments. All studied compounds were formulated with human serum albumin (HSA, 5:1 compound to HSA molar ratio) and subsequently diluted to a 20 μM final concentration with assay medium composed of serum-free INVITROGRO HI Medium and TORPEDO Antibiotic Mix purchased from BioIVT. For cellular uptake determinations, the maintenance/metabolism medium was first aspirated from each well, and then the plated cells were spiked with 1.0 mL of test compound stock solution. Subsequently, the plate was incubated at 37 °C under 5% CO2 environment over the desired time course (seven data points/compound). Blank wells not treated with prodrug were included in assay runs as controls and initial time points (0 min). At each time point, the test compound solution was removed from the appropriate wells, and the plated cells were washed with 1.0 mL of DPBS twice. The HepaRG cells were then extracted with 500 μL of cold ISTD solution (1 μM 7-ethoxy-d5-coumarin in 70/30 MeOH/H2O), and the quenched aliquots were centrifuged at 15,000 g for 10 min at 4 °C. […] After obtaining prodrug Cmax and Tmax values from the cellular uptake assay, HepaRG metabolic stability was then assessed. Following the initial 7-day culture procedure, the maintenance/metabolism medium was aspirated from each well, and the plated cells were spiked with 1.0 mL of test compound stock solution. […] The test compound solution was then removed from each well and replaced with untreated dilution medium (i.e., serum-free INVITROGRO HI Medium and TORPEDO Antibiotic Mix), initializing the stability determination. The HepaRG plate was once more incubated at 37 °C under 5% CO2 atmosphere over the desired time course (nine data points/compound), and sample preparation and analysis were handled in identical fashion to cellular uptake experiments.

in vitro [4] = conditions: human, other cell line
Text: as §1, §2

[5] = plasma, p.o. 10 mg/kg; cited from earlier work
[6] = liver, p.o. 10 mg/kg; cited from earlier work
HepaRG cells [7] = test: HepaRG cellular uptake; conditions: for mean prodrug concentration in HepaRG cells: 20 µM; for HepaRG Cmax: 20 μM, HSA formulation 5:1, recorded after 3 h incubation
Text: as §1, §2

HepaRG cells [8] = test: HepaRG cellular metabolic stability; conditions: for HepaRG t1/2: after 3 h loading at 20 μM, 37 °C; for HepaRG Clint,u: calculated from cellular t1/2
Text: as §1, §2

[9] = Cellular cytotoxicity (cell viability, CellTiter 96 or resazurin); conditions: human, CC50, HEK293T cells, compounds formulated with HSA (5:1)
Protocol: Second, HIV IC50 and cellular CC50 were determined with a pseudoviral, whole (HEK293T) cell, nonreplicative HIV assay, using the HIV-1 subtype C strain MJ4 (refer to Experimental Methods). To account for the unique amphiphilic properties of TXL and the novel HTP-based prodrugs, all compounds were formulated in a human serum albumin (HSA) solution (5:1 drug:protein).
Assessment of cytotoxicity and antiviral activity of all final compounds in vitro was conducted according to previously reported procedures.[39] In summary, human embryonic kidney (HEK293T) cells maintained in high glucose (25 mM), Dulbecco’s modified Eagle’s medium (DMEM) supplemented with fetal bovine serum (10%), sodium pyruvate (1 mM), L-glutamine (2 mM), HEPES (25 mM), and gentamicin (50 μg/mL) were used for determinations. The cells were maintained in an incubator at 37 °C under 5% CO2 in a humidified atmosphere. For both cytotoxicity and antiviral screening, all compounds were evaluated in duplicate in at least two independent experiments. All final compounds were formulated with human serum albumin (HSA, 5:1 compound to HSA molar ratio) and subsequently diluted with complete DMEM to 200 μM. Fifty microliters of test compound serial dilutions (3-fold) were prepared in 96-well culture plates, after which 50 μL of HEK293T cells (2 × 10^4 cells/well) was added. […] Cytotoxicity was then assessed by quantifying cell viability using the CellTiter 96 Aqueous One Solution Cell Proliferation Assay (Promega, Madison, WI) or resazurin sodium salt (cat# R7017, Merck, Darmstadt, Germany).[61] […] Antiviral activity was then assessed using a single-cycle, nonreplicating, envelope deleted HIV pseudoviral in vitro assay.[62],[63] The assay relies on the introduction of the firefly luciferase gene into HEK293T cells through infection with HIV-like viral particles, containing Reverse Transcriptase (RT) and Integrase (IN) from the HIV-1 subtype C strain MJ4.[64] The expression of the luciferase in the cells is directly proportional to the level of infection by the HIV-like viral particles and can be used to assess the inhibition of HIV-1 RT and IN. To evaluate anti-HIV activity, 3-fold serial dilutions of all final compounds were prepared in 50 μL over the noncytotoxic concentration range (as determined from the cytotoxicity screens described above) in 96-well culture plates. HEK293T cells (2 × 10^4 cells/well) and HIV-like viral particles, standardized to produce a luminescence signal of 1 × 10^6 relative light units (RLUs) in the growth medium only control, were combined, and 50 μL was added to the wells containing serially diluted test compounds. […] The expression of luciferase was subsequently quantified by adding 100 μL of the Bright-Glo Luciferase Assay substrate (Promega, Madison, WI) to each well of the 96-well plates. After incubation at rt for 3 min, luminescence was quantified on the GloMax Explorer Multimode Microplate Reader (Promega, Madison, WI).

[10] = system: HIV-1 subtype C strain MJ4; design: method as in PMID 34459598; conditions: previously reported lead; cited from earlier work
HEK293T cells = system: HEK293T cells; design: method as in PMID 34459598; conditions: previously reported lead; cited from earlier work
HepaRG cellular uptake = conditions: human, HepaRG Cmax, 20 μM, HSA formulation 5:1, recorded after 3 h incubation
Text: as §1, §2

[11] = HepaRG cellular metabolic stability; conditions: human, other cell line
Text: as §1, §2

[12] = depending on food intake; cited from earlier work
[13] = HepaRG Clint,u, calculated from cellular t1/2
[14] = HepaRG t1/2, after 3 h loading at 20 μM, 37 °C

In the case of `CC(C)OC(=O)[C@H](C)N[P@](=O)(CO[C@H](C)Cn1cnc2c(N)ncnc21)Oc1ccccc1` [TAF, tenofovir alafenamide], the “share of oral dose undergoing hepatic processing” value [1] is listed as 65%.
For `CCCCCCCCCCCCCCCCOCCCOP(=O)(O)CO[C@H](C)Cn1cnc2c(N)ncnc21` [TXL, tenofovir exalidex], the “HLM t1/2” value [2] was 42 min and 41.6 ± 9.0 ^d min, the Cmax (in vitro [3]) was 397 ng/mL and the hepatocyte CLint (in vitro [4]; [13]) was about 29 µL/min/1e6 cells. The half-life (in vitro [4]; [14]) was 43 to 44 min, the “Prodrug AUC0-24h” value [5] was 301 ng·h/mL and the “Prodrug Cmax” value [5] was 125 ng/mL. The “Prodrug Tmax” value [5] was 60 min, the “Prodrug t1/2” value [5] was 175 min and the k [5] was 0.237. The “Prodrug AUC0-24h” value [6] was 4970 ng·h/mL, the “Prodrug Cmax” value [6] was 2730 ng/mL and the “Prodrug Tmax” value [6] was 60 min. For the same compound, the “mean prodrug concentration in HepaRG cells” value (shortened to “mean prodrug concentration”) (HepaRG cells [7]; 0.5 h) was 258.83 ng/mL, the “mean prodrug concentration” value (HepaRG cells [7]; 1 h) was 311.46 ng/mL and the “mean prodrug concentration” value (HepaRG cells [7]; 2 h) was 378.66 ng/mL. The “mean prodrug concentration” value (HepaRG cells [7]; 3 h) was 397.09 ng/mL, the “mean prodrug concentration” value (HepaRG cells [7]; 5 h) was 468.27 ng/mL and the “mean prodrug concentration” value (HepaRG cells [7]; 7 h) was 536.47 ng/mL. For the same compound, the “HepaRG Cmax” value (HepaRG cells [7]) was 397.1 ± 1.4 ng/mL, the “HepaRG t1/2” value (HepaRG cells [8]) was 44.3 ± 0.5 min and the “HepaRG Clint,u” value (HepaRG cells [8]) was 28.5 μL/min/million cells. The CC50 at 48 h [9] was 97.6 ± 2.7 µM.
In the case of `C[C@H](Cn1cnc2c(N)ncnc21)OCP(=O)(O)OCCCOCCCCCCCCCCCCCCCC(F)(F)F.N` [compound 1], the IC50 [10] is given as 0.049 ± 0.01 µM, the CC50 (HEK293T cells) is given as over 100 µM and the “Prodrug AUC0-24h” value [5] is given as 1280 ng·h/mL. For the same compound, the “Prodrug Cmax” value [5] was 125 ng/mL, the “Prodrug Tmax” value [5] was 120 min and the “Prodrug t1/2” value [5] was 520 min. The k [5] was 0.080, the “Prodrug AUC0-24h” value [6] was 109,000 h·ng/mL and the “Prodrug Cmax” value [6] was 8710 ng/mL. For the same compound, the Cmax at 3 h, 20 μM (HepaRG cellular uptake) was 337 ng/mL, the “mean prodrug concentration” value (HepaRG cells [7]; 0.5 h) was 141.43 ng/mL and the “mean prodrug concentration” value (HepaRG cells [7]; 1 h) was 180.34 ng/mL. For the same compound, the “mean prodrug concentration” value (HepaRG cells [7]; 2 h) was 319.83 ng/mL, the “mean prodrug concentration” value (HepaRG cells [7]; 3 h) was 337.43 ng/mL and the “mean prodrug concentration” value (HepaRG cells [7]; 5 h) was 321.56 ng/mL. For the same compound, the “mean prodrug concentration” value (HepaRG cells [7]; 7 h) was 417.13 ng/mL, the “HepaRG Cmax” value (HepaRG cells [7]) was 337.4 ± 1.0 ng/mL and the hepatocyte CLint at 20 μM [11, 13] was about 29 µL/min/1e6 cells. The half-life at 20 μM [11, 14] was 43 to 44 min, the “HepaRG t1/2” value (HepaRG cells [8]) was 42.9 ± 0.5 min and the “HepaRG Clint,u” value (HepaRG cells [8]) was 29.4 μL/min/million cells.
In the case of `CC(C)OC(=O)OCOP(=O)(CO[C@H](C)Cn1cnc2c(N)ncnc21)OCOC(=O)OC(C)C` [TDF, tenofovir disoproxil fumarate], the oral bioavailability [12] is listed as 25–40%.
